The target in test [1] is T1, GLUT4 (Homo sapiens, UniProt P14672).
T1 construct: SNAP (SNAP-tag fusion partner); expressed in transfected cells; host or cells: 3T3-L1 adipocytes, retrovirally transduced
T1 sequence (P14672 1-509): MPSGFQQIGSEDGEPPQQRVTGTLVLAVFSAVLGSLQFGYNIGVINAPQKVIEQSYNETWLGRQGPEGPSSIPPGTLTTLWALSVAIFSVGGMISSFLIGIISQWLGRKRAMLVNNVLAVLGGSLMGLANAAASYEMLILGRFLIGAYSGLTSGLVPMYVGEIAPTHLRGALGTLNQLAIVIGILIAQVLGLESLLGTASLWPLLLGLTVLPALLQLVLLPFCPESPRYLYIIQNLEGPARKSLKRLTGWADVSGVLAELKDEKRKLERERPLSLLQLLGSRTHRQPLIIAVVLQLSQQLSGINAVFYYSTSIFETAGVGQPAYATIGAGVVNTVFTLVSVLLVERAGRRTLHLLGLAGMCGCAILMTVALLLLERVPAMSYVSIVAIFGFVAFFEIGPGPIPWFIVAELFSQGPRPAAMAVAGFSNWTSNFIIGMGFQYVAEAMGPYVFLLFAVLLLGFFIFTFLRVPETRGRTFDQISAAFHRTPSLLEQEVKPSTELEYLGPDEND
Put plainly: HNE-induced GLUT4 carbonylation (K264-HNE adduct) by MRM in 3T3-L1 adipocytes overexpressing GLUT4-SNAP. Type of test: cell-based. To be noted: 20 μM for 4 hour, 3T3-L1 cells overexpressing GLUT4. How it is done:
A GLUT4-SNAP fusion construct is generated. 3T3-L1 adipocytes were then retrovirally transduced with the construct to overexpress the GLUT4-SNAP protein. Twenty-four hours after the transduction, the cells were treated with and without 20 μM of 4-HNE for an additional 4 hours. This 4-HNE dose is chosen because it is similar to the physiological levels and is non-toxic. In order to identify and quantitate GLUT4 carbonylation (K264 NHE-adduct or R265 and R246 glutamic semialdehyde adducts), a mass spectroscopy-based multiple reaction monitoring (MRM) method is developed and validated.
[…] of the GLUT4 peptide found in humans were used for quantitation.

For test [2], the system named is 3T3-L1 adipocytes. Put plainly: Insulin-induced glucose uptake by 3T3-L1 adipocytes after 4-HNE / H2O2 treatment (MRM). The format is cell-based, mouse. As to conditions: 500 μM for 4 hour, then 100 nM insulin for 60 minutes. How it is done:
3T3-L adipocytes (1×10^6) were treated with either 500 μM of 4-HNE or H2O2 or combination of both for 4 hour and were then stimulated with 100 nM insulin for 60 minutes. The glucose uptake is measured by a specific MRM method.

Turning to `CCCCCC(O)/C=C/C=O` (stereo not drawn) [Example 4-HNE, 4-hydroxynonenal], the “formation of the K264-HNE adduct (GLUT4 carbonylation)” value in test [1] is given as “induced the formation of the K264-HNE adduct”. Further, in test [2], the “reduction of insulin-induced glucose uptake” value was 32%. On to `OO` [Example H2O2], for which the “reduction of insulin-induced glucose uptake” value in test [2] amounted to 66%.

For the origin of these results see patent US20200392075A1, “COMPOSITIONS AND METHODS FOR TREATMENT OF INSULIN RESISTANCE” (Temple University - Of The Commonwealth System Of Higher …, priority 2018, published 2020).
